Experiment: Relaxometric properties: longitudinal relaxivity r1p in human plasma
Assay type: physicochemical
Details: expressed per mM gadolinium; for r1p at 0.47 T 37° C., human plasma: 0.47 T (20 MHz); for r1p at 1.41 T 37° C., human plasma: 1.41 T (60 MHz)
Experimental: The relaxometric properties of some representative complex compounds according to the invention have been determined at different magnetic field strengths, e.g. including 0.47 and 1.41 T, at 37° C., in human plasma and compared with relaxivity values measured, at the same conditions, for some Gd-complex of the market having an analogous cyclic coordination cage.
The longitudinal water proton relaxation rate (R1=1/T1) was measured at 0.47 T with a Minispec MQ-20 spectrometer (Bruker Biospin, Germany) operating at a proton Larmor frequency of 20 MHz; MR experiments at 1.41 T were performed using a Minispec MQ-60 spectrometer (Bruker Biospin, Germany) operating at a proton Larmor frequency of 60 MHz.
All test articles were used as supplied and diluted in the selected medium (human plasma) by weighting the required amount of paramagnetic chelated complex to get a starting solution of 5 or 10 mM concentration in gadolinium.
Relaxivity Measurements Five different concentration samples (0.1, 0.25, 0.5, 0.75 and 1 mM in gadolinium) for each medium have been prepared by further dilution of the starting 5 or 10 mM solution.
Relaxivity measurements were performed at 0.47 T and 1.41 T at a preset temperature sample of 37° C., kept constant by means of a thermostatic bath connected to the sample holder of the spectrometer. The five sample solutions have been preliminary pre-heated at 37° C. in an external thermostatic bath and then left 10 minutes inside the internal bath to assure the stabilization of the temperature. Longitudinal relaxation time T1 was measured by means of a standard inversion recovery sequence, where the inversion time (TI) was varied from 10 ms to at least 5 times T1 in 15 steps. Statistical analysis (mono-exponential fitting for T1 measurement, linear fitting for the evaluation of longitudinal relaxivity) was performed by Mathematica® (Wolfram, USA). Errors on the estimated parameters were evaluated by the fitting procedure.
The relaxivity values r1p of some representative compounds according to the invention, obtained in human plasma at 37° C., are summarized in the following Table A, together with the structure of tested compounds and the strength of the applied magnetic field (in T), and compared with corresponding values measured for two commercial contrast agents in clinical practice having a macrocyclic chelating cage.

Row | SMILES | r1p at 0.47 T 37° C., human plasma [mM⁻¹ s⁻¹] | r1p at 1.41 T 37° C., human plasma [mM⁻¹ s⁻¹]
1 | O=C(O)CN1CCN(CC(=O)O)CCN(CC(O)CN(CCOCCOCCO)CC(O)CN2CCN(CC(=O)O)CCN(CC(=O)O)CCN(CC(=O)O)CC2)CCN(CC(=O)O)CC1 (stereo not drawn) | 10.9 | 10.4
2 | CC(O)CN1CCN(CC(=O)O)CCN(CC(=O)O)CCN(CC(=O)O)CC1 (stereo not drawn) (Gd complex, metal not drawn) [ProHance, reference compound] | 4.9 | 4.15
3 | O=C(O)CN1CCN(CC(=O)O)CCN(CC(O)CN(CC(O)CN2CCN(CC(=O)O)CCN(CC(=O)O)CCN(CC(=O)O)CC2)C(COCCOCCO)COCCOCCO)CCN(CC(=O)O)CC1 (stereo not drawn) | 10.1 | 9.8
4 | COCCOCCOCCN(CCN(CCOCCOCCOC)CC(O)CN1CCN(CC(=O)O)CCN(CC(=O)O)CCN(CC(=O)O)CC1)CC(O)CN1CCN(CC(=O)O)CCN(CC(=O)O)CCN(CC(=O)O)CC1 (stereo not drawn) [Chelate Complex 9] | 12.1 | 11.5
5 | O=C(O)CN1CCN(CC(=O)O)CCN(CC(=O)O)CCN(CC(=O)O)CC1 [reference compound] | 4.5 | 3.6
6 | COCCOCCOCCOCCN(CC(O)CN1CCN(CC(=O)O)CCN(CC(=O)O)CCN(CC(=O)O)CC1)CC(O)CN1CCN(CC(=O)O)CCN(CC(=O)O)CCN(CC(=O)O)CC1 (stereo not drawn) | 10.6 | 10.3

Source: patent publication US10793533B2, “Dimeric contrast agents” (BRACCO IMAGING S.P.A., priority 2016, dated 2020)
